According to PubChem BioAssay AID1919007 (Molecular Pharmacology Branch, DTP, NCI, 2023):
“And” between values parts separate entries of the source, which are not always exact repeats. Equal entries are not always repeated.

Test system: A498 complex spheroids with HUVEC/MSC, growth
Test: Anticancer human tumor A498 cell line growth inhibition [AhR];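 further: seven day exposure starting three days after spheroid seeding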;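 on viability, T/C: luminescence signal used as a surrogate for viable cells; luminescence viability scaled so 100% equals DMSO vehicle wells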
Details: for viability, T/C: stronger effect = lower value
In short: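 Agents were dosed in half-log steps down from roughly clinical Cmax, or from 10 microM where Cmax was unknown, alone and with AhR antagonists. Read-out: percent test/control growth of tumor spheroids containing HUVEC and MSC stromal cells.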

[1] = curve of first compound, second compound 0.1 µM
[2] = curve of first compound, second compound 0.316 µM
[3] = curve of first compound, second compound 1 µM
[4] = curve of first compound, second compound 3.16 µM
[5] = curve of first compound, second compound 10 µM
[6] = second compound 0.1 µM, first compound 0.00316 µM
[7] = second compound 0.1 µM, first compound 0.01 µM
[8] = second compound 0.1 µM, first compound 0.0316 µM
[9] = second compound 0.1 µM, first compound 0.1 µM
[10] = second compound 0.1 µM, first compound 0.316 µM
[11] = second compound 0.1 µM, first compound 1 µM
[12] = second compound 0.316 µM, first compound 0.00316 µM
[13] = second compound 0.316 µM, first compound 0.01 µM
[14] = second compound 0.316 µM, first compound 0.0316 µM
[15] = second compound 0.316 µM, first compound 0.1 µM
[16] = second compound 0.316 µM, first compound 0.316 µM
[17] = second compound 0.316 µM, first compound 1 µM
[18] = second compound 1 µM, first compound 0.00316 µM
[19] = second compound 1 µM, first compound 0.01 µM
[20] = second compound 1 µM, first compound 0.0316 µM
[21] = second compound 1 µM, first compound 0.1 µM
[22] = second compound 1 µM, first compound 0.316 µM
[23] = second compound 1 µM, first compound 1 µM
[24] = second compound 3.16 µM, first compound 0.00316 µM
[25] = second compound 3.16 µM, first compound 0.01 µM
[26] = second compound 3.16 µM, first compound 0.0316 µM
[27] = second compound 3.16 µM, first compound 0.1 µM
[28] = second compound 3.16 µM, first compound 0.316 µM
[29] = second compound 3.16 µM, first compound 1 µM
[30] = second compound 10 µM, first compound 0.00316 µM
[31] = second compound 10 µM, first compound 0.01 µM
[32] = second compound 10 µM, first compound 0.0316 µM
[33] = second compound 10 µM, first compound 0.1 µM
[34] = second compound 10 µM, first compound 0.316 µM
[35] = second compound 10 µM, first compound 1 µM
[36] = second compound 0.1 µM, first compound 3.16 µM
[37] = second compound 0.1 µM, first compound 10 µM
[38] = second compound 0.316 µM, first compound 3.16 µM
[39] = second compound 0.316 µM, first compound 10 µM
[40] = second compound 1 µM, first compound 3.16 µM
[41] = second compound 1 µM, first compound 10 µM
[42] = second compound 3.16 µM, first compound 3.16 µM
[43] = second compound 3.16 µM, first compound 10 µM
[44] = second compound 10 µM, first compound 3.16 µM
[45] = second compound 10 µM, first compound 10 µM

Row | SMILES | IC50 [1] [nM] | IC50 [2] [nM] | IC50 [3] [nM] | IC50 [4] [nM] | IC50 [5] [nM] | viability, T/C [8] [%] | viability, T/C [9] [%] | viability, T/C [10] [%] | viability, T/C [11] [%] | viability, T/C [14] [%] | viability, T/C [15] [%] | viability, T/C [16] [%] | viability, T/C [17] [%] | viability, T/C [20] [%] | viability, T/C [21] [%] | viability, T/C [22] [%] | viability, T/C [26] [%] | viability, T/C [27] [%] | viability, T/C [32] [%] | viability, T/C [33] [%] | other results
1 | Nc1ncn(C2CC(O)C(CO)O2)c(=O)n1 (configuration not stated) + Cc1ccccc1N=Nc1ccc(NC(=O)c2ccnn2C)c(C)c1 | > 1000 | > 1000 | > 1000 | > 1000 | > 1000 | 88.8 | 93.6 | 86.2 | 77.1 | 97.4 | 84 | 78.5 | 76.1 | 84.4 | 74.9 | 74.6 | 85.8 | 73.9 | 76.9 | 85.3 | viability, T/C [6]: 88.8%; viability, T/C [7]: 91.7%; viability, T/C [12]: 97%; viability, T/C [13]: 97.5%; viability, T/C [18]: 81.2%; viability, T/C [19]: 87.3%; viability, T/C [23]: 70.6%; viability, T/C [24]: 84.9%; viability, T/C [25]: 87.2%; viability, T/C [28]: 80%; viability, T/C [29]: 64%; viability, T/C [30]: 90.7%; viability, T/C [31]: 86.7%; viability, T/C [34]: 74.8%; viability, T/C [35]: 68%
2 | Cn1ncnc1C1c2n[nH]c(=O)c3cc(F)cc(c23)NC1c1ccc(F)cc1 (configuration not stated) + Cc1ccccc1N=Nc1ccc(NC(=O)c2ccnn2C)c(C)c1 | > 100 | > 100 | > 100 | > 100 | > 100 | 86 | 88 |  |  | 90.4 | 88.2 |  |  | 81.5 | 87.3 |  | 83.2 | 73.7 | 79.6 | 81.7 | viability, T/C (second compound 0.1 µM, first compound 0.000316 µM): 102%; viability, T/C (second compound 0.1 µM, first compound 0.001 µM): 93.6%; viability, T/C [6]: 92.2%; viability, T/C [7]: 94%; viability, T/C (second compound 0.316 µM, first compound 0.000316 µM): 96.3%; viability, T/C (second compound 0.316 µM, first compound 0.001 µM): 91.5%; viability, T/C [12]: 95.1%; viability, T/C [13]: 93.3%; viability, T/C (second compound 1 µM, first compound 0.000316 µM): 93.5%; viability, T/C (second compound 1 µM, first compound 0.001 µM): 89%; viability, T/C [18]: 85.6%; viability, T/C [19]: 81.2%; viability, T/C (second compound 3.16 µM, first compound 0.000316 µM): 83.7%; viability, T/C (second compound 3.16 µM, first compound 0.001 µM): 86.8%; viability, T/C [24]: 88.7%; viability, T/C [25]: 84.7%; viability, T/C (second compound 10 µM, first compound 0.000316 µM): 82%; viability, T/C (second compound 10 µM, first compound 0.001 µM): 93%; viability, T/C [30]: 90.8%; viability, T/C [31]: 85%
3 | COc1ccc([C@@H](O)c2cc(-c3ncnc4cc(N5CCOCC5)ccc34)c(F)cc2Cl)nn1 + CC(CO)NC(=O)c1cc(-c2ccc(Cl)cc2)nn(-c2cnn(C)c2)c1=O | 346 | 307 | 307 | 230 | 74.4 | 83.6 | 79.5 | 49.9 | 26.2 | 78 | 73 | 48.4 | 23.9 | 77.7 | 73.2 | 48.7 | 70.9 | 67.9 | 55.3 | 49.3 | viability, T/C [36]: 15.1%; viability, T/C [37]: 9.67%; viability, T/C [38]: 13.6%; viability, T/C [39]: 8.99%; viability, T/C [23]: 22.8%; viability, T/C [40]: 14.3%; viability, T/C [41]: 9.42%; viability, T/C [28]: 42.7%; viability, T/C [29]: 20.8%; viability, T/C [42]: 12.9%; viability, T/C [43]: 10%; viability, T/C [34]: 33.1%; viability, T/C [35]: 21.1%; viability, T/C [44]: 12.3%; viability, T/C [45]: 7.61%
4 | NS(=O)(=O)OCC1CC(n2ccc3c(NC4CCc5ccccc54)ncnc32)CC1O (configuration not stated) + Cc1cncc(-c2nc(NCCc3c[nH]c4ccccc34)c3ncn(C(C)C)c3n2)c1 | 448 | 412 | 244 | < 31.6 | < 31.6 | 87.5 | 86.2 | 55.5 | 33.3 | 89.2 | 81.6 | 52.1 | 35.4 | 78.3 | 71.3 | 41.6 | 19.1 | 18.4 | 1.63 | 1.35 | viability, T/C [36]: 23.7%; viability, T/C [37]: 18.3%; viability, T/C [38]: 22.4%; viability, T/C [39]: 19.2%; viability, T/C [23]: 29.7%; viability, T/C [40]: 20.3%; viability, T/C [41]: 17.9%; viability, T/C [28]: 18.8%; viability, T/C [29]: 18.3%; viability, T/C [42]: 15.5%; viability, T/C [43]: 13.8%; viability, T/C [34]: 0.89%; viability, T/C [35]: 0.94%; viability, T/C [44]: 0.76%; viability, T/C [45]: 0.77%
5 | NS(=O)(=O)OCC1CC(n2ccc3c(NC4CCc5ccccc54)ncnc32)CC1O (configuration not stated) + CC(CO)NC(=O)c1cc(-c2ccc(Cl)cc2)nn(-c2cnn(C)c2)c1=O | 268 | 263 | 310 | 245 | 196 | 94.8 | 86 | 42.4 | 30 | 90.9 | 81.8 | 42.9 | 27.2 | 92 | 82.4 | 47.5 | 92.5 | 73.6 | 79 | 64.1 | viability, T/C [36]: 22.4%; viability, T/C [37]: 17.7%; viability, T/C [38]: 23.3%; viability, T/C [39]: 17.6%; viability, T/C [23]: 30.8%; viability, T/C [40]: 23.4%; viability, T/C [41]: 19.8%; viability, T/C [28]: 41.5%; viability, T/C [29]: 29.3%; viability, T/C [42]: 20.6%; viability, T/C [43]: 18.3%; viability, T/C [34]: 39.5%; viability, T/C [35]: 26%; viability, T/C [44]: 20.9%; viability, T/C [45]: 17.6%
6 | Nc1ccccc1NC(=O)c1ccc(CNC(=O)OCc2cccnc2)cc1 |  |  |  |  |  |  |  |  |  |  |  |  |  |  |  |  |  |  |  |  | viability, T/C (compound 0.0316 µM): 83.7% and 98.2% and 88.8%; viability, T/C (compound 0.1 µM): 83.4% and 95.8% and 93.6%; viability, T/C (compound 0.316 µM): 88.2% and 84.4% and 77.7%; viability, T/C (compound 1 µM): 61.2% and 70.2% and 50.5%; viability, T/C (compound 3.16 µM): 21.5% and 29.6% and 23.1%; viability, T/C (compound 10 µM): 2.22% and 2% and 2.21%; IC50 (curve of compound): 1430 nM and 1740 nM and 1090 nM
